# Values joined by “and” are separate entries in the source; they are usually repeats but may differ in a detail not shown here. Identical values can stand only once.
# Experiments:
# hSGLT2 S74A = biological target: T1, hSGLT2 S74A (Homo sapiens, UniProt P31639, S74A); experiment: cell-based
# T1 construct: expressed in transfected cells; host or cells: Expi293 cells, crude membrane fraction
# Excerpt: (§1) hSGLT2 complementary DNA and human MAP17 cDNA were synthesized and codon-optimized for expression in human cell lines. Both cDNAs were cloned into the pcDNA3.4 vector. The hSGLT2 sequence was fused with an N-terminal signal sequence from human trypsinogen 1, a His10 tag, and sfGFP, followed by a human rhinovirus 3C protease (HRV3C protease) recognition site. Point mutations were introduced into this construct using site-directed mutagenesis. These plasmids were utilized for all experimental procedures conducted in this study.
# HEK293 cells (ECACC 85120602) were maintained in Dulbecco’s modified Eagle medium (Gibco) supplemented with 10% fetal bovine serum (Thermo Scientific), 2 mM L-glutamine, 100 U ml^−1 benzylpenicillin and 100 µg ml^−1 streptomycin at 37 °C in a humidified atmosphere (5% CO2 in air). HEK293 cells were seeded at 1.0 × 10^5 cells per well in poly-L-lysine coated 24-well plates. […]
# Cell lysates were deproteinized by adding acetonitrile containing candesartan as the internal standard. The α-MG concentration was quantified via liquid chromatography–tandem mass spectrometry (LC–MS/MS) using the internal standard method.
# Cellular protein content was determined using a bicinchoninic acid protein assay kit (Thermo Fisher Scientific). The uptake of α-MG was expressed as the ratio of concentration in the cells (in pmol per mg protein) to concentration in the medium (in pmol μl^−1); this is known as the cell-to-medium ratio (in μl per mg protein).
# In the inhibition study, the cell-to-medium ratio of cells transfected with the empty vector was used as the background. The specific α-MG uptake was calculated by subtracting this background from the total cell-to-medium ratio and normalized to the uptake achieved without the inhibitor. IC50 was calculated via nonlinear regression using GraphPad Prism 8.4.3.
# The concentrations of the extract solution from the filter plate and of the cell lysate were quantified using a tandem mass spectrometry QTRAP6500 System (SCIEX) coupled with an ACQUITY UPLC system (Waters) using the internal standard method. […]
# hSGLT2 F453A = biological target: T2, hSGLT2 F453A (Homo sapiens, UniProt P31639, F453A); experiment: SGLT2 inhibitor-binding assay (AS-MS), crude membrane, F453A mutant; design: expressed in transfected cells; host or cells: Expi293 cells, crude membrane fraction; details: 30 nM canagliflozin, replicates
# T2 sequence (P31639 1-672 F453A): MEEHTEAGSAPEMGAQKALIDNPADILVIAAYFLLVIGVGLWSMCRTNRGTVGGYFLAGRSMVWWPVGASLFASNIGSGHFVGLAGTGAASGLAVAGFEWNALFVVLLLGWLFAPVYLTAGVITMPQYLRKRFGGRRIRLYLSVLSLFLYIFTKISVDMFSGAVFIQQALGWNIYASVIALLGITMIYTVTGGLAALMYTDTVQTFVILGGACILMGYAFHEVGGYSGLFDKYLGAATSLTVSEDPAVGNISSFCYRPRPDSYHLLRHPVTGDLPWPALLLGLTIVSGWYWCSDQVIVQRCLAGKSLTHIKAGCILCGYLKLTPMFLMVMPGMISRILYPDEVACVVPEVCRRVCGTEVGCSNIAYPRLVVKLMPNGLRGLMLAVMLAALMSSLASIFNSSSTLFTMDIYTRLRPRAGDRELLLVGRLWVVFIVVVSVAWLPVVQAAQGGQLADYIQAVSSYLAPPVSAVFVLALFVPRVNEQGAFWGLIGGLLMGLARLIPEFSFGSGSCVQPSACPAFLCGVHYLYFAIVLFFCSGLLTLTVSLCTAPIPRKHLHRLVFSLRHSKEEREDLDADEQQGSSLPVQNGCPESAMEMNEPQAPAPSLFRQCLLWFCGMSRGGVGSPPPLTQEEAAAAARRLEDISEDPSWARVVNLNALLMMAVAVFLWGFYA
# T2 sequence (Q13113 1-114 partner): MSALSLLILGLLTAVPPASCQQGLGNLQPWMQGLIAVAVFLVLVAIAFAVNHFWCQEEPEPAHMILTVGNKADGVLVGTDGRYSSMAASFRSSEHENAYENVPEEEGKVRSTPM
# Excerpt: as §1
# To examine the inhibition of binding to the crude membrane, mammalian Expi293 cells were co-transfected with the hMAP17 and hSGLT2 plasmids, as described. […] The extract solution from the filter plate was diluted with water containing candesartan as an internal standard, and the SGLT2 inhibitor concentration was quantified via LC–MS/MS.
# Nonspecific binding was measured using the crude membrane of nontransfected Expi293 cells. Specific binding was calculated by subtracting nonspecific binding from the binding of hSGLT2-expressing cells. Specific binding was normalized to hSGLT2 protein expression levels, measured via FSEC. The equilibrium dissociation constant (Kd) and maximum number of binding sites (Bmax) were calculated via nonlinear regression in GraphPad Prism 8.4.3. […]
# SGLT2 = system: SGLT2; design: method as in literature; details: referee comment in peer review file; ref literature; cited from earlier work
# T1 sequence (P31639 whole entry S74A, one chain of several): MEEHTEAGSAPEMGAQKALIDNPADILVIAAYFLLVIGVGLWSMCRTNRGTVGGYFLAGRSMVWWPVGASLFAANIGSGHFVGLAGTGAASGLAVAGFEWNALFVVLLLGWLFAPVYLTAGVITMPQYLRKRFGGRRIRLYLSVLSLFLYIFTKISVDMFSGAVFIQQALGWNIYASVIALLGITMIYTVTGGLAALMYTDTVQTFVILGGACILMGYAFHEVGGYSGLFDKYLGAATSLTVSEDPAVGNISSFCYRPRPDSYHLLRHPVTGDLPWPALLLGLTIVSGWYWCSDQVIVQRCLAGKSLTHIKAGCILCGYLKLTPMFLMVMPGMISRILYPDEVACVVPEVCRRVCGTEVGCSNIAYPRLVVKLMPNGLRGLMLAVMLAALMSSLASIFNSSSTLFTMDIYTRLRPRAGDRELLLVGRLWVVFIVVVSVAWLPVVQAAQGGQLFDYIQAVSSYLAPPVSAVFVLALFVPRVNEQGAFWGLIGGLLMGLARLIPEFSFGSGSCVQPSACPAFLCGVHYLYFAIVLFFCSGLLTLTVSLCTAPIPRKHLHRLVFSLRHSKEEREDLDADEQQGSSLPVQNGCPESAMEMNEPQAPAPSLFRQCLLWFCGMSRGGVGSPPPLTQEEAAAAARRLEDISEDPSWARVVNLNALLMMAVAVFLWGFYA
SMILES,"remaining activity at 0.003 µM (hSGLT2 S74A; HEK293, read-out: α-MG uptake (% of control), Phlorizin 3 nM)","remaining activity at 0.03 µM (hSGLT2 S74A; HEK293, read-out: α-MG uptake (% of control), Phlorizin 30 nM)","remaining activity at 0.1 µM (hSGLT2 S74A; HEK293, read-out: α-MG uptake (% of control), Phlorizin 100 nM)",Canagliflozin binding (% of WT) (hSGLT2 F453A),IC50 (SGLT2)
O=C(CCc1ccc(O)cc1)c1c(O)cc(O)cc1O[C@@H]1O[C@H](CO)[C@@H](O)[C@H](O)[C@H]1O [Phlorizin],95.3%,80.6%,70.1%,–,–
Cc1ccc([C@@H]2O[C@H](CO)[C@@H](O)[C@H](O)[C@H]2O)cc1Cc1ccc(-c2ccc(F)cc2)s1 [Canagliflozin],–,–,–,4.952 % of WT and 11.6565 % of WT and 16.2768 % of WT,~2.7 nM

# — article PMC10803289, “Transport and inhibition mechanism of the human SGLT2–MAP17 glucose transporter” (Nature Structural & Molecular Biology, 2023)
